# Assay results published in ChEMBL document CHEMBL1201862, “PubChem BioAssay data set” (2004).
# Calls of active or inactive are those of the source.
# Assays:
# [1] = inhibitors of HIV Env-driven cell fusion, dose response, cherry-pick (AID 652057); format: functional, cell-based
# [2] = ZM109 Env clade C HIV-1 fusion inhibitors, dose response, HeLa effector, CEM target cells, luciferase, cherry-pick (AID 652058); format: functional, cell-based
# [3] = inhibitors of clade B AD8 Env fusion, dose response, cell-based, cherry-pick (AID 652062); format: functional;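 note: luciferase signal from cell-cell fusion driven by HIV-1 clade B AD8 Env; potency is for inhibitors of fusion seen as a drop in luminescence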
# [4] = target: Cytochrome P450 3A4 (Homo sapiens, UniProt P08684);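 note: CYP3A4 tested as one member of a cytochrome P450 panel screen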
# Sequence of Cytochrome P450 3A4 (P08684 whole entry): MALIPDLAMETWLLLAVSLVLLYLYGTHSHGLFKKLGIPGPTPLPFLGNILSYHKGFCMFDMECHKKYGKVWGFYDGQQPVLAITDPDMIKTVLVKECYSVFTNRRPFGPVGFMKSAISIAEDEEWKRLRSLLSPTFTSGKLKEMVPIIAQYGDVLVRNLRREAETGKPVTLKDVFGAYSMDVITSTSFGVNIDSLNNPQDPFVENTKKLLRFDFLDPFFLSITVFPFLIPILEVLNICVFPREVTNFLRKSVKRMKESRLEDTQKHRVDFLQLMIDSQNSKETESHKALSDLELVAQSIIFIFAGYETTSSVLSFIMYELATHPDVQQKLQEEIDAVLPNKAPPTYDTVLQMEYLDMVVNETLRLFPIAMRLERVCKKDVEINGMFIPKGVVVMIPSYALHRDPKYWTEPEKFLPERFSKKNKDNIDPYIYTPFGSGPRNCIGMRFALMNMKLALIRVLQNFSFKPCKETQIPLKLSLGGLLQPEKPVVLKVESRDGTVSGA
# [5] = test system: BJ; experiment: cytotoxicity toward BJ-TERT fibroblasts, dose response, cell-based, RAS-independent, luminescence (AID 1933); format: functional; settings: Homo sapiens
# [6] = test system: BJ; experiment: cells; format: functional, cell-based; settings: Homo sapiens
# [7] = test system: BJ; experiment: cytotoxicity toward BJ-TERT-LT-ST fibroblasts, dose response, cell-based, RAS-independent, luminescence (AID 1935); format: functional; settings: Homo sapiens;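 note: BJ fibroblasts immortalized with TERT plus LT and ST oncogenes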
# [8] = cytotoxicity toward DRD oncogenic fibroblasts, dose response, cell-based, non-viral oncogenic, luminescence (AID 1934); format: functional; settings: Homo sapiens
# [9] = Luminescence Cell-Based Dose Retest to Confirm Inhibitors of Cancer Stem Cells. [Related pubchem assays (depositor defined):AID2717, AID2721]; format: functional; settings: Homo sapiens
# [10] = test system: Vero; experiment: cells; format: functional; settings: Chlorocebus sabaeus
# [11] = target: T1, Protein skinhead-1 (Caenorhabditis elegans, UniProt P34707); format: functional
# T1 sequence (P34707 whole entry): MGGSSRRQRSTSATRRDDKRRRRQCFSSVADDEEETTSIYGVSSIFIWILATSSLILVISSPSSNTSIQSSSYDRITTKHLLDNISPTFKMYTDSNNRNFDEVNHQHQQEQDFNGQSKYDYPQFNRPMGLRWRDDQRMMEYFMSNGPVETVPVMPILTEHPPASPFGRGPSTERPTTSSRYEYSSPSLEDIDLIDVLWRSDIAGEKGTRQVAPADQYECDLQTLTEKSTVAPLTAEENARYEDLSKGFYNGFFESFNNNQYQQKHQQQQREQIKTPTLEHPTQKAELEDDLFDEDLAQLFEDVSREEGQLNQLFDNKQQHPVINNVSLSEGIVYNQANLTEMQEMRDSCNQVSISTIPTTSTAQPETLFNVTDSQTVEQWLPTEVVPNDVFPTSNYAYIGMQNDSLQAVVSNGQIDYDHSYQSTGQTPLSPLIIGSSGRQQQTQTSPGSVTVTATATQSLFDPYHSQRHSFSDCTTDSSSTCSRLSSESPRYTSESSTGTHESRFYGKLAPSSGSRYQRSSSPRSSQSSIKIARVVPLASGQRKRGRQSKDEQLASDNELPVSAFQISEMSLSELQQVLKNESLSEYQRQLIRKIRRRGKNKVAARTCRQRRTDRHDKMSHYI
# [12] = target: Induced myeloid leukemia cell differentiation protein Mcl-1 (Homo sapiens, UniProt Q07820); format: functional
# Sequence of Induced myeloid leukemia cell differentiation protein Mcl-1 (Q07820 whole entry): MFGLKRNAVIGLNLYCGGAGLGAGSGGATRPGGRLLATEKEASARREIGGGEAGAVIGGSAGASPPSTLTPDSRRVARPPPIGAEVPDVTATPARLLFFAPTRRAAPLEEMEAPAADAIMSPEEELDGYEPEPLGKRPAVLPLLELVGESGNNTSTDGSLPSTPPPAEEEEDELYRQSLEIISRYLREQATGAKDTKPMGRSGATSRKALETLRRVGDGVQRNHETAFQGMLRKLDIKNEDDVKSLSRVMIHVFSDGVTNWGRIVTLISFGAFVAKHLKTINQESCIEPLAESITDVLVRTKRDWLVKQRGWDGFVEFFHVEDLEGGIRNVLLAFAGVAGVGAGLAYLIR
# [13] = target: Cytochrome P450 2C19 (Homo sapiens, UniProt P33261); experiment: Cytochrome panel assay with activity outcomes. Panel member name: p450-cyp2c19 Compounds with AC50 equal or less than 10 uM are considered active; format: functional; settings: read-out: AC50
# Sequence of Cytochrome P450 2C19 (P33261 whole entry): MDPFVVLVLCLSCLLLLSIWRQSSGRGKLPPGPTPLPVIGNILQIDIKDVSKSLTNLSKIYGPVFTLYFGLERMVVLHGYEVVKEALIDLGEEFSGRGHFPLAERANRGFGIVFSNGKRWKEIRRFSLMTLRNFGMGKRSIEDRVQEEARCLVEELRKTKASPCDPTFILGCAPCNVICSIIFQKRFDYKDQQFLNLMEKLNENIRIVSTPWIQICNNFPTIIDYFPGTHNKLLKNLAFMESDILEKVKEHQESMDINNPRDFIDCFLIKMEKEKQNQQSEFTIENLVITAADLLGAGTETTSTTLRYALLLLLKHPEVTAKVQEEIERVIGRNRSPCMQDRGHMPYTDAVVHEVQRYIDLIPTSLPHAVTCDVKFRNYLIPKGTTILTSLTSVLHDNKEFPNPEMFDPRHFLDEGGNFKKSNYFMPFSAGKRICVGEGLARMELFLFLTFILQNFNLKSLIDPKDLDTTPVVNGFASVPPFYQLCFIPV
# [14] = target: Cytochrome P450 2C9 (Homo sapiens, UniProt P11712)
# Sequence of Cytochrome P450 2C9 (P11712 whole entry): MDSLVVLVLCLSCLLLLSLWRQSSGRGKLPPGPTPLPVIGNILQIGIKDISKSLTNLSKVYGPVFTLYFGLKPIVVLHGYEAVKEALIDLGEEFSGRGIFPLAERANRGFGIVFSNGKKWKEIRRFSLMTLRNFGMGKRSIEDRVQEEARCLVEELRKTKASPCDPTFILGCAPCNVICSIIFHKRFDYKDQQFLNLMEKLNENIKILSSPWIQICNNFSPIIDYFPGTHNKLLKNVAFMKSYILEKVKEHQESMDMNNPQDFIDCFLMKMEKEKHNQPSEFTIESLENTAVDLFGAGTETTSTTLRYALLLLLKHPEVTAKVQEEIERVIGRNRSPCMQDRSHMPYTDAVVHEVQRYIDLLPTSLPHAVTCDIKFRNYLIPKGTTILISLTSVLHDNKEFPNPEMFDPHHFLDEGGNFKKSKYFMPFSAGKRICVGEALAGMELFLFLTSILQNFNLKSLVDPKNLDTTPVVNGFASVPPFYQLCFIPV
# [15] = miR-122 activators in hepatoma reporter cells, dose response, cell-based, Huh7 psiCHECK-miR122, Renilla luciferase, cherry-picked (AID 651956); format: functional;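 note: huh7 hepatoma cells stably carrying a psiCHECK-2 miR-122 sensor plasmid; renilla luciferase signal reporting endogenous miR-122 activity after 48 h compound exposure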
# [16] = HEp-2 cell cytotoxicity, dose response, cytotoxicity control for RSV inhibitor project, HTS (AID 2410); format: functional; settings: human respiratory syncytial virus
# [17] = target: T2, Heat shock factor protein 1 (Mus musculus, UniProt P38532); experiment: inhibition of MG132-induced HSE-luciferase signal, confirmation, cell-based, NIH3T3, luminescence, dose retest (AID 2382); format: functional;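 note: NIH3T3 fibroblasts with HSF1-driven luciferase reporter stressed by proteasome inhibitor MG132; luminescence from HSF1-driven luciferase expression after 8 hours of MG132 stress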
# T2 sequence (P38532 whole entry): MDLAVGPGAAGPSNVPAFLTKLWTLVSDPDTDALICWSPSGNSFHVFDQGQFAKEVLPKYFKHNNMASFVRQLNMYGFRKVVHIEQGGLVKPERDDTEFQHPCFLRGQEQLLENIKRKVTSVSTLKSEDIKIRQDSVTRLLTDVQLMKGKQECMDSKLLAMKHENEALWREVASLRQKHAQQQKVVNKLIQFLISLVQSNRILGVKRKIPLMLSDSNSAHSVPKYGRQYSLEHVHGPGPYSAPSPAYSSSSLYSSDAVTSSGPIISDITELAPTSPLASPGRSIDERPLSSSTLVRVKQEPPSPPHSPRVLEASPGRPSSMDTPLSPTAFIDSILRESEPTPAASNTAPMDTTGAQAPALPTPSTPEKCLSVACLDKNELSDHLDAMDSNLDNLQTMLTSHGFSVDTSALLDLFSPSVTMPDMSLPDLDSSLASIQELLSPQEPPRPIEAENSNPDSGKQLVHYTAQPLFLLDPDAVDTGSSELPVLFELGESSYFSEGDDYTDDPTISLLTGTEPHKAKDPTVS
# [18] = target: Heat shock protein HSP 90-alpha (Homo sapiens, UniProt P07900); format: functional, organism-based
# [19] = target: Paired box protein Pax-8 (Homo sapiens, UniProt Q06710); experiment: inhibitors of PAX8-driven TPO luciferase reporter, dose response, RMG-I cells, cherry-pick (AID 687027); format: functional, cell-based;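 note: luciferase reporter driven by Pax8 target thyroperoxidase promoter measured by SteadyGlo luminescence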
# Sequence of Paired box protein Pax-8 (Q06710 whole entry, the tested form may be a part): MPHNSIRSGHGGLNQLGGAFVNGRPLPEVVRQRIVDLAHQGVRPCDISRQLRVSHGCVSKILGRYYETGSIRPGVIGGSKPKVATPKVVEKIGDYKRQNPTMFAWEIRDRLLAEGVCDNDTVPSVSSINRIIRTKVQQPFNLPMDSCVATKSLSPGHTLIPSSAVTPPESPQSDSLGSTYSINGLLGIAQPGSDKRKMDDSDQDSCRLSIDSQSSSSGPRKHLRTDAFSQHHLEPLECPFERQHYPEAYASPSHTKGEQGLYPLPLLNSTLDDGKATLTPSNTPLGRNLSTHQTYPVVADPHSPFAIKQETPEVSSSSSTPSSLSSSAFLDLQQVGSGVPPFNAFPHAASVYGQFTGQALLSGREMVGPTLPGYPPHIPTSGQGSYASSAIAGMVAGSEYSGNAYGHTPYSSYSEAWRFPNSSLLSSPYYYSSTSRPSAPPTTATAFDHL
# [20] = off-target signal loss in HeLa-CEM21 co-culture – HeLa F-luc CTL cells, cherry-picked, counter-screen for HIV-1 Env fusion inhibitor project, dose response (AID 652040); format: functional, cell-based;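 note: potency for signal decrease marking cytotoxic or nonspecific inhibition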
# [21] = target: T3, Aminopeptidase N (Plasmodium falciparum FcB1/Columbia, UniProt O96935); experiment: P. falciparum M1AAP inhibitors, biochemical, fluorogenic H-Leu-NHMec substrate, 1536-well (AID 1445); parameters: species or system Plasmodium falciparum 3D7, 3D7
# T3 sequence (O96935 whole entry): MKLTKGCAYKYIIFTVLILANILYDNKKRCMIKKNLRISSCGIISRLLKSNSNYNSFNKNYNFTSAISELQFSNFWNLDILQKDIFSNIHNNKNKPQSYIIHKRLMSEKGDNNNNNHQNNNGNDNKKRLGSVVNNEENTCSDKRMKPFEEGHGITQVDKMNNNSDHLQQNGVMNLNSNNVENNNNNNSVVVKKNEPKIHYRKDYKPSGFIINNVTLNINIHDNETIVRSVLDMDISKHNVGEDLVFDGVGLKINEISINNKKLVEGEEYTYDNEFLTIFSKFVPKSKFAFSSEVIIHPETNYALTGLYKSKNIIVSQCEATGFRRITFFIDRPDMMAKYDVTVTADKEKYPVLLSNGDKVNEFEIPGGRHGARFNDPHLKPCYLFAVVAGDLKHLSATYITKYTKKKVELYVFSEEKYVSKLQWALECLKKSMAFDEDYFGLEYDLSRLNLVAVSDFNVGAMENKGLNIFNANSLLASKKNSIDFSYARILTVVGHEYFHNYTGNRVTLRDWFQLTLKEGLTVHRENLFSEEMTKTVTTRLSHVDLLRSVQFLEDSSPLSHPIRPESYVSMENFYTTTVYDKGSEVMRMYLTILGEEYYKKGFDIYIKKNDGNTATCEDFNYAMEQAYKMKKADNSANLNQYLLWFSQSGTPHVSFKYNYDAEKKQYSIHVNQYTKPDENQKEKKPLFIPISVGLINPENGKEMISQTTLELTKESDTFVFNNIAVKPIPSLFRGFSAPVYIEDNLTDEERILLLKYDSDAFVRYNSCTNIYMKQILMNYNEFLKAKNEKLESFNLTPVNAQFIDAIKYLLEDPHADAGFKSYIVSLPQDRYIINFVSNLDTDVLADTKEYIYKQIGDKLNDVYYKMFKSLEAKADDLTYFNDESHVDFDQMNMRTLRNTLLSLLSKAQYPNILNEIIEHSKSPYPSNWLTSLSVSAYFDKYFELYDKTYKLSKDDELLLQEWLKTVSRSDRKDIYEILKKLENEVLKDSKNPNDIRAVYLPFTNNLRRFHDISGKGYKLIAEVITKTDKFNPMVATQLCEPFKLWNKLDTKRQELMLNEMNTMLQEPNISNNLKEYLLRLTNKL
# [22] = target: Large T antigen (Simian virus 40, UniProt P03070); format: functional, Betapolyomavirus macacae;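 note: Confirmatory-stage PubChem screen for compounds that inhibit SV40 T antigen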
# Sequence of Large T antigen (P03070 whole entry): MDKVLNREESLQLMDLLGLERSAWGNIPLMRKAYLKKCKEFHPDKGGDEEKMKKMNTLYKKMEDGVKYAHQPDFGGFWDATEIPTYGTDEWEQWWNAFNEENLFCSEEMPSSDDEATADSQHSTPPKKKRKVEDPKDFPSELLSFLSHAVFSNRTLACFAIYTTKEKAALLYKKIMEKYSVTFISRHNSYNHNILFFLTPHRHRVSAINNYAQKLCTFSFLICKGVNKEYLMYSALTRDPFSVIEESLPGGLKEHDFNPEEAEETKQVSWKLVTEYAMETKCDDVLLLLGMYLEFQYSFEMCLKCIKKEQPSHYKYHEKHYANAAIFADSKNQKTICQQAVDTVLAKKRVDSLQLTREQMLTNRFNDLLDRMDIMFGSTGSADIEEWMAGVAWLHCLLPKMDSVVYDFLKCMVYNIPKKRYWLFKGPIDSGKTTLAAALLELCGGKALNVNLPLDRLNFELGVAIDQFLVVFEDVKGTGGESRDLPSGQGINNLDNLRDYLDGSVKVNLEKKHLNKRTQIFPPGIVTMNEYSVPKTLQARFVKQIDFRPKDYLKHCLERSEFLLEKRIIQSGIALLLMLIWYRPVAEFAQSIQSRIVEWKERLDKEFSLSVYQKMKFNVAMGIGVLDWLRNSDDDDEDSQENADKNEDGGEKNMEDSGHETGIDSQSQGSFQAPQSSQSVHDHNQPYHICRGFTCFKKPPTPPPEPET
# [23] = intracellular Trypanosoma cruzi inhibitors in host cells – cell-based, plate reader, cherry-pick samples, set 3, dose response (AID 651818); format: functional;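 note: compounds incubated with infected cells for about four days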
compound,measurement,setting,value
C[C@@H]1CN([C@H](C)CO)C(=O)c2cccc(NS(=O)(=O)c3cccs3)c2O[C@@H]1CN(C)Cc1ccc(C(F)(F)F)cc1,AC50,[1],< 0.26 µM (active)
same,AC50,[2],< 0.26 µM (active)
same,AC50,[3],2.1 µM (active)
CC(=O)O[C@H]1CC[C@@]2(C)[C@@H](CC[C@H]3[C@H]2CC(=O)[C@@]2(C)[C@@H]3C[C@H]3CC(C)=CC(=O)[C@H]32)C1,AC50,[4],inconclusive
COc1cc(NC(=O)c2csc(N)n2)cc(C(=O)Nc2cccc(C(F)(F)F)c2)c1,EC50,[5],8.47 µM (inconclusive)
same,EC50,[6],52.4 µM (inconclusive)
same,EC50,[7],111 µM (active)
same,EC50,[8],4.71 µM (active)
same,AC50,[9],2.19 µM (active)
O=C(NCc1nc2ccccc2[nH]1)C1=C[C@H](C2CCCCC2)C[C@H](OCc2ccc(CO)cc2)O1,CC50,[10],16.1 µM (active)
same,IC50,[11],> 100 µM (inactive)
COc1ccccc1Nc1nc(-c2sc(NC(=O)c3ccc([N+](=O)[O-])cc3)nc2C)cs1,IC50,[12],0.449 µM (active)
same,AC50,[13],1.58 µM (inconclusive)
same,AC50,[14],3.55 µM (inconclusive)
O=C(/C=C/c1ccc(Cl)cc1)Nc1ccc(CN2CCOCC2)cc1,IC50,[11],14.3 µM (active)
C/C=C/c1ccc([C@H]2[C@@H](CO)N(Cc3ccccn3)[C@H]2CNC(=O)CC)cc1,AC50,[15],53.3 µM (active)
COc1ccc(/C=C/C(=O)c2nc3ccccc3n2CC(=O)c2ccc(OC)cc2)cc1,IC50,[11],> 100 µM (inactive)
Clc1ccc2c(c1)c1cc(Cl)ccc1n2CN1CCOCC1,CC50,[16],17.9 µM (active)
same,IC50,[11],74.5 µM (inactive)
S=C1SCN(Cc2cccnc2)CN1Cc1cccnc1,EC50,[5],2.48 µM (active)
same,EC50,[17],> 195 µM (not active)
same,EC50,[6],4.49 µM (active)
same,EC50,[7],26.1 µM (active)
same,EC50,[8],8.06 µM (inconclusive)
same,AC50,[18],4.53 µM (active)
same,CC50,[10],10.4 µM (active)
same,AC50,[19],3.62 µM (active)
CC[C@]1(C(=O)OC)[C@H]2C(=O)N(Cc3ccccc3)C(=O)[C@H]2[C@H]2CN=C(SCc3ccc(C)cc3)N21,AC50,[1],2.43 µM (active)
same,AC50,[2],1.56 µM (active)
same,AC50,[20],3.14 µM (active)
same,AC50,[3],3.41 µM (active)
CCOc1cc(/C=C2/C(=N)N3N=C(c4ccccc4)SC3=NC2=O)ccc1O,IC50,[21],30.1 µM (active)
same,IC50,[22],10.2 µM (active)
same,IC50,[12],3.61 µM (active)
C[C@H]1CN([C@@H](C)CO)C(=O)c2cccc(NC(=O)Nc3cccc4ccccc34)c2O[C@H]1CN(C)Cc1ccc(C(=O)Nc2ccccc2N)cc1,AC50,[23],3.59 µM (active)
CCOC(=O)c1c(C)c(C)n2c1NC(=O)C2,IC50,[11],> 100 µM (inactive)
C[C@@H]1CN([C@H](C)CO)C(=O)Cc2cc(N(C)C)ccc2O[C@H]1CN(C)Cc1ccc2c(c1)OCO2,AC50,[23],6.22 µM (active)
Cc1ccc(S(=O)(=O)Nc2ccc3c(c2)CC(=O)N([C@@H](C)CO)C[C@@H](C)[C@@H](CN(C)Cc2ccc(C(F)(F)F)cc2)O3)cc1,AC50,[23],2.03 µM (active)
COc1ccc(NC2CC(=O)N(CCc3ccccc3)C2=O)cc1 (configuration not stated),IC50,[11],> 100 µM (inactive)
Cc1ccc2c(c1)[C@H]1[C@H](CO2)[C@H](c2ccccc2)[C@]2(C)C(=O)N(CC3CCCO3)CC(=O)N12 (some centres not stated),AC50,[1],2.63 µM (active)
same,AC50,[2],2.05 µM (active)
same,AC50,[20],4.49 µM (active)
same,AC50,[3],9.2 µM (active)
Cc1nc(Oc2ccccc2)c2oc3ccccc3c2n1,IC50,[11],> 100 µM (inactive)
O=C1[C@H]2[C@@H](C3CC3)N3C(=O)CN(CC4CC4)C(=O)[C@@]3(Cc3ccccc3)[C@H]2C(=O)N1c1ccccc1,AC50,[1],1.76 µM (active)
same,AC50,[2],3.84 µM (active)
same,AC50,[20],3.51 µM (active)
same,AC50,[3],1.69 µM (active)
C[C@@H]1CN([C@H](C)CO)C(=O)Cc2cc(NC(=O)Cc3ccccc3)ccc2O[C@@H]1CN(C)Cc1ccc(Cl)c(Cl)c1,AC50,[23],2.51 µM (active)
C[C@H]1CN([C@@H](C)CO)C(=O)Cc2cc(NC(=O)Cc3cn(C)c4ccccc34)ccc2O[C@H]1CN(C)Cc1ccc(C(F)(F)F)cc1,AC50,[23],1.81 µM (active)
C[C@H]1CN([C@@H](C)CO)C(=O)Cc2cc(NC(=O)C3CC3)ccc2O[C@@H]1CN(C)Cc1ccc(C(=O)Nc2ccccc2N)cc1,AC50,[23],3.59 µM (active)
COc1ccc(C(=O)C2CCCN(Cc3cccn3-c3ccccn3)C2)c(OC)c1 (configuration not stated),AC50,[15],21.8 µM (active)
